{"source": "patent US20070142304A1", "about": "“Diphenylazetidinone derivatives possessing chloesterol absorption inhibitory activity” (priority 2003, published 2007)", "system": "14C-cholesterol absorption", "assay": "In Vivo Testing of Cholesterol Absorption Inhibitors (A)", "conditions": "5 μmol/kg by gavage, C57BL/6 female mice, procedure A", "method": "In Vivo Testing of Cholesterol Absorption Inhibitors (A)\nC57BL/6 female mice were maintained on regular chow diet and housed in individual cages to collect faeces. Mice were fasted for 3 hours and then gavaged with vehicle or compound. Half an hour later the mice were gavaged with radiolabelled cholesterol. Six hours after the ^14C-cholesterol gavage blood samples were taken via the tail and plasma prepared to determine how much cholesterol were absorbed. 24 hours after the gavage of ^14C-cholesterol the mice were bled and plasma were prepared for analysis. Faeces were collected for 24 hours to assess absorption efficiency."}
{"smiles": "CC(C)CC(NC(=O)COc1ccc(C2C(CCC(O)c3ccc(F)cc3)C(=O)N2c2ccc(F)cc2)cc1)C(=O)NC(Cc1ccccc1)C(=O)O", "note": "[Example 3, 1-(4-Fluorophenyl)-3-(R)-[3-(4-fluorophenyl)-3-hydroxypropyl]-4-(S)-{4-[N-((R)-1-{N-[1-(R)-(carboxy)-2-(phenyl)ethyl]carbamoyl}-3-methylbutyl)carbamoylmethoxy]phenyl}azetidin-2-one]", "values": [{"measurement": "inhibition of 14C-cholesterol absorption", "result": 75, "unit": "%"}]}
{"smiles": "O=C(COc1ccc(C2C(CCC(O)c3ccc(F)cc3)C(=O)N2c2ccc(F)cc2)cc1)NC(Cc1ccccc1)C(=O)NC(CO)C(=O)O", "note": "[Example 4, 1-(4-Fluorophenyl)-3-(R)-[3-(4-fluorophenyl)-3-hydroxypropyl]-4-(S)-[4-(N-{1-(R)-[N-(1-(S)-carboxy-2-hydroxyethyl)carbamoyl]-2-phenylethyl}carbamoylmethoxy)phenyl]azetidin-2-one]", "values": [{"measurement": "inhibition of 14C-cholesterol absorption", "result": 58, "unit": "%"}]}
